According to patent US6120997A, “Nucleic acid binders having an hydroxyamine motif” (The Scripps Research Institute, priority 1998, dated 2000):
Entries after “also recorded” stand apart in the source; their conditions may differ.

Key:
wt-RRE-II = assay: SPR binding of aminoglycosides to wt-RRE-II; design: species or system HIV-1; conditions: for dissociation from wt-RRE-II after 1 min (in words): aminoglycoside-free buffer, pH 7.4, 150 mM NaCl
Protocol: FIGS. 9A and 9B illustrate neomycin B binding to RBE3, RBE3-neg and wt-RRE-II. (A) Semilogarithmic plot. […] Conditions: pH 7.0, 10 mM HEPES, 150 mM NaCl, 0.1 mM EDTA, […].
FIGS. 10A and 10B illustrate paromomycin binding to RBE3, RBE3-neg and wt-RRE-II. (A) Semilogarithmic plot; the dashed line indicates the binding of neomycin B to wt-RRE-II for comparison (B) Scatchard plot. […] Conditions: pH 7.0, 10 mM HEPES, 150 mM NaCl, 0.1 mM EDTA, […].
FIG. 11 illustrates the kinetic stability of wt-RRE-II complexes with neomycin B vs. paromomycin. […] Data points were taken after 1 min of dissociation.
Binding of the aminoglycoside to all three RNA oligonucleotides is observed starting in the low nanomolar concentration range and is non-saturable over the concentration range investigated. […] The high degree of non-specific binding is not surprising considering that aminoglycosides are highly charged polycations that tend to associate nonspecifically with the polyanionic phosphate backbone of RNA. […] Data points corresponding to 0.5 or more equivalents of neomycin B represent equilibrium values and can be analyzed with respect to stoichiometry and affinity of aminoglycoside binding. […] Both sequences bind one molecule of neomycin B with submicromolar affinity followed by weaker association with several additional equivalents of the antibiotic.
Samples were prepared by serial dilutions from stock solutions in RNase free microfuge tubes (Ambion) and were centrifuged at 14000 rpm for degassing. Buffers were filtered through sterile 0.2 &m nylon membranes (Nalgene) under vacuum, except for BIA certified HBS buffer (Pharmacia Biosensor AB) which was used as obtained. All procedures for binding studies were automated as methods using repetitive cycles of sample injection and regeneration. Typically, buffer was injected in the first two cycles to establish a stable baseline value. Samples were injected at a flowrate of 5-10 &L/min using either the KINJECT or the COINJECT command. All aminoglycoside and Rev27 samples were injected from autoclaved 7 mm plastic vials that were capped with pierceable plastic crimp caps. To minimize carry over, samples were injected in order of increasing concentration. The running buffer was identical to the injection buffer, except for the salt dependence study where a single running buffer was used for all injections. Expected values for the equilibrium response of one equivalent of analyte were calculated from the relative molecular weight of the analyte and the immobilized RNA ligand in each flowcells. These values were adjusted by multiplying with a factor of 0.8 or 0.57 for Rev27 or aminoglycosides respectively. These factors arise from the different molar refractive indices of RNA and the analyte and were determined from the Scatchard plot x-axis intercepts of the 1:1 binding isotherms for Rev27 and neomycin B.
Binding Studies with Aminoglycosides.
Neomycin B sulfate (Fluka) was converted to the free base by passing it through Amberlite IRA 400 (OH-- form) and purified by ion exchange chromatography on Dowex 1-X2 100 to remove neomycin C; the purity of neomycin B was verified by NMR in D2 O. Paromomycin sulfate was obtained from Sigma and used as received. Samples were prepared by dilution from 10 mM stock solutions in injection buffer (10 mM HEPES, pH 7.4, 150 mM NaCl, 3.4 mM EDTA). Data points were taken after an association phase of 30 min. A 2 min regeneration pulse of 150 mM Na2 SO4 in injection buffer was used between injections. […]

Neo16-bd = assay: SPR binding of aminoglycosides to Neo16-bd aptamer
Protocol: Conditions: 10 mM HEPES (pH 7.4), 0.1 mM EDTA and NaCl as indicated.
The binding of aminoglycosides to RNA is likely to involve substantial ionic contributions and therefore should be strongly influenced by competing buffer ions. […] We studied the salt dependence of neomycin B binding to RBE3, RBE3-neg and Neo16-bd (FIG. 14) by varying the concentration of NaCl included in the injection buffer (10 mM HEPES, pH 7.4, 0.1 mM EDTA). […] This neomycin binding motif was obtained by in vitro selection under conditions of high ionic strength.
To further improve our understanding of specific aminoglycoside recognition, we have also included an artificial aminoglycoside receptor that was evolved in vitro to recognize an aminoglycoside. A number of RNA aptamers for small molecules have been reported in recent years. Among them are aptamers that recognize the aminoglycosides tobramycin, lividomycin and kanamycin.
For comparison, the corresponding values for AS-wt are also included.
(§1) General Procedures for SPR Binding Studies done in Example 5. Samples were prepared by serial dilutions from stock solutions in RNase free microfuge tubes (Ambion) and were centrifuged at 14000 rpm for degassing. Unless otherwise noted, all binding studies were carried out using HBS buffer (Pharmacia Biosensor AB) which was used as obtained. All procedures for binding studies were automated as methods using repetitive cycles of sample injection and regeneration. Typically, buffer was injected in the first two cycles to establish a stable baseline value. Samples were injected at a flowrate of […] using either the KINJECT command. All aminoglycoside samples were injected from autoclaved 7 mm plastic vials that were capped with pierceable plastic crimp caps. To minimize carry over, samples were injected in order of increasing concentration. The running buffer was identical to the injection buffer.

[1] = test system: wt-RRE-II, RBE3 and RBE3-neg; assay: SPR binding of aminoglycosides to RRE related RNAs; design: species or system HIV-1
Protocol: Samples were prepared by serial dilutions from stock solutions in RNase free microfuge tubes (Ambion) and were centrifuged at 14000 rpm for degassing. […] All procedures for binding studies were automated as methods using repetitive cycles of sample injection and regeneration. Typically, buffer was injected in the first two cycles to establish a stable baseline value. […] To minimize carry over, samples were injected in order of increasing concentration.
as §1

Rev-RRE = conditions: cited from earlier work
[2] = test system: bacterial protein synthesis; conditions: cited from earlier work

NC[C@@H]1O[C@H](O[C@H]2[C@@H](O)[C@H](O[C@@H]3[C@@H](O)[C@H](N)C[C@H](N)[C@H]3O[C@H]3O[C@H](CO)[C@@H](O)[C@H](O)[C@H]3N)O[C@@H]2CO)[C@H](N)[C@@H](O)[C@@H]1O [Paromomycin]
dissociation from wt-RRE-II after 1 min (in words) (wt-RRE-II): No apparent 1:1 binding isotherm is discernible
discrimination between paromomycin and neomycin derivatives of the same charge, Neo16bd (Neo16-bd): greater than 20 fold
lower affinity compared to neomycin B ([1]; wt-RRE-II, RBE3 and RBE3-neg, equilibrium binding): approximately 15 fold
reported inhibitory effect on Rev-RRE binding (in words) (Rev-RRE): virtually no inhibitory effect
reported inhibition difference between neomycin B and paromomycin, Rev-RRE (Rev-RRE; gel-shift assays): > 100 fold

NC[C@@H]1O[C@H](O[C@H]2[C@@H](O)[C@H](O[C@@H]3[C@@H](O)[C@H](N)C[C@H](N)[C@H]3O[C@H]3O[C@H](CN)[C@@H](O)[C@H](O)[C@H]3N)O[C@@H]2CO)[C@H](N)[C@@H](O)[C@@H]1O [Neomycin B]
number of molecules/sites bound with submicromolar affinity (wt-RRE-II) (wt-RRE-II; SPR): three different sites, each with a submicromolar dissociation constant; also recorded: three molecules of neomycin B are bound with submicromolar affinity; also recorded: up to three molecules
dissociation from wt-RRE-II after 1 min (in words) (wt-RRE-II): apparent 1:1 binding isotherm
relative binding affinity for wt-RRE-II (in words) (wt-RRE-II; comparison of aminoglycosides): highest affinity
selectivity for binding Neo16-bd vs. RBE3 or RBE3-neg (Neo16-bd; 250 mM NaCl, 10 mM HEPES, pH 7.4, 0.1 mM EDTA): approximately 100 fold
specificity of Neo16bd relative to RBE3 (Neo16-bd; HBS buffer + 150 mM NH4Cl): greater than 300 fold
Kd (Neo16-bd; HBS buffer + 150 mM NH4Cl, read-out: Kd, Neo16bd, high salt): < 10 nM
discrimination between the three RRE related sequences (in words) [1]: no discrimination
weaker binding to the three RRE related RNAs than to AS-wt [1]: 12 fold
effect on bacterial protein synthesis (in words) [2]: induces miscoding during translation
